Reference: patent US20150024955A1, “Methods of Identifying Modulators of Dephosphorylation of Histone Deacetylase” (THE J. DAVID GLADSTONE INSTITUTES, priority 2006, published 2015)

Columns and labels:
Nur77 = Nur77 expression by Western blot in DO11.10 cells; settings: after PMA treatment
Experimental: SDS-PAGE and Western blot analysis were performed according to standard procedures. Western blots were developed with the ECL detection kit (Amersham Pharmacia Biotech, Piscataway, N.J.).

HDAC7-GFP = HDAC7-GFP subcellular localization by immunofluorescence microscopy in DO11.10 cells; assay type: cell-based
Experimental: DO11.10 cells (5×10^6) were nucleofected with an HDAC7-GFP expression vector together with either siRNA control or siRNAs for PP1β and MYPT1. Cells ([…]) were seeded onto poly-L-lysine-coated coverslips 12 h after nucleofection and allowed to attach for 12 h. Cells were stimulated with 10 ng/ml PMA. HDAC7 was localized by immunofluorescence microscopy with a confocal fluorescence microscope (Olympus BX60, Bio-Rad).
To determine whether the changes in HDAC7 phosphorylation affected the subcellular localization of the protein, the fate of an HDAC7-GFP fusion protein in response to PMA was followed. […] The subcellular localization of HDAC7 also closely paralleled serine 155, serine 318, and serine 448 phosphorylation. While resting cells […] nuclear exclusion of HDAC7, more than 75% of activated cells excluded HDAC7 from the nucleus at 2 hours after stimulation (FIG. 7A). However, this exclusion was transient and HDAC7 progressively returned to the nucleus over the next few hours (FIGS. 7A, 7B). Significant reimport of HDAC7-GFP into the nucleus occurred at 4 h after PMA treatment, a time course that paralleled HDAC7 dephosphorylation (FIGS. 7A, 7B). […] Phosphatases have been predicted to regulate the nucleo-cytoplasmic shuttling of other class IIa HDAC, such as HDAC4, 5, and 9 for some time but have not been identified so far. […]

[1] = system: HDAC7 (Ser155, Ser318, Ser448 phosphorylation); test: HDAC7 phosphorylation by Western blot with antiphospho-HDAC7 antisera in DO11.10-HDAC7-Flag cells; assay type: cell-based, human
Experimental: DO11.10-HDAC7-Flag cells were untreated or treated with either PMA or anti CD3 antibody for the indicated times. Total cellular extracts were prepared in 20 mM Hepes (pH 7.5), 10 mM EGTA, 22.5 mM MgCl2, 1% NP-40, 2 mM orthovanadate, 1 mM dithiothreitol, and 0.5 mM phenyl-methyl sulfonyl fluoride supplemented with protease inhibitors, and subjected to Western blot analysis.
Antibodies against mouse HDAC7 phosphorylated at serine residues 178, 344 and 479 were generated (Sigma Genosys, INC., Houston Tex. 77216-1508, USA). Briefly, rabbits were immunized with KLH-conjugated peptides. The phosphopeptides used to generate the phosphor-specific antibodies were FPLRTV[pSer]EPNLKL for P-Ser178, RPLNRTR[pSer]EPLPPS for P-Ser344 and RPLSRTQ[pSer]SPAAPV for P-Ser479. [pSer] indicates the phosphate group on the conserved serine residues. HDAC7 phospho specific antibodies were purified from crude rabbit serum by double affinity purification with nonphosphorylated and phosphorylated peptide. The corresponding serine residues can be found in human HDAC7 at amino acid positions 155, 318, and 448, respectively.
Using these antisera, the state of phosphorylation of HDAC7 following PMA treatment was assessed. […] Phosphatase treatment of immunoprecipitated HDAC7 abolished the reactivity of the different phosphor-HDAC7 antibodies confirming their specificity for phosphorylated HDAC7 (FIG. 6A).
To test the possibility that HDAC7 became dephosphorylated by a phosphatase, cells were stimulated with PMA followed by the addition of okadaic acid, a phosphatase inhibitor, for the rest of the time course. Consistent with the hypothesis that HDAC7 is dephosphorylated by a phosphatase, okadaic acid treatment led to persistent phosphorylation of HDAC7 at each site up to 24 h (FIG. 6B).
To further probe the role of myosin phosphatase in the dephosphorylation of HDAC7 in vivo, small interfering RNAs (siRNAs) specific for PP1β and MYPT1 were introduced into DO11.10 cells expressing HDAC7. With an siRNA control (siCo), HDAC7 was transiently phosphorylated in response to PMA, with a peak at 2 h, and rapidly dephosphorylated thereafter (FIG. 11B, left panel). […] Further, HDAC7 remained phosphorylated up to 8 h after PMA stimulation (FIG. 11B, right panel).

Structure (SMILES)	time of peak Nur77 induction (Nur77) [h]	percentage of cells excluding HDAC7 from the nucleus (HDAC7-GFP; 2 hours after stimulation)	percentage of cells showing nuclear exclusion of HDAC7 (HDAC7-GFP; 24 hours after stimulation) [%]	HDAC7 phosphorylation at each serine after treatment ([1]; DO11.10 stably expressing HDAC7-Flag, Western blot of immunoprecipitated HDAC7)	start of progressive decrease in HDAC7 phosphorylation after treatment ([1]; all three serine residues, total HDAC7 content unchanged) [h]	time of maximum (full) HDAC7 phosphorylation after stimulation ([1]; time course, DO11.10-HDAC7-Flag cells) [h]	time up to which HDAC7 remained phosphorylated after PMA stimulation ([1]; agent applied together with PMA stimulation, DO11.10-HDAC7-Flag cells)
CCCCCCCCCCCCCC(=O)O[C@@H]1[C@@H](C)[C@@]2(O)[C@@H](C=C(CO)C[C@]3(O)C(=O)C(C)=C[C@@H]23)[C@@H]2C(C)(C)[C@]12OC(C)=O [PMA]	2	more than 75%	< 20	increased HDAC7 phosphorylation at each serine	4	1 to 2	–
C=C1[C@@H](O)[C@@H]2O[C@]3(CC[C@H](/C=C/[C@@H](C)[C@@H]4CC(C)=C[C@@]5(O[C@H](C[C@@](C)(O)C(=O)O)CC[C@H]5O)O4)O3)CC[C@H]2O[C@@H]1[C@@H](O)C[C@H](C)[C@H]1O[C@@]2(CCCCO2)CC[C@H]1C [okadaic acid]	–	–	–	–	–	–	up to 24 h
